This note sets out measurements from PMC8607231, “Generation of KS-133 as a Novel Bicyclic Peptide with a Potent and Selective VIPR2 Antagonist Activity that Counteracts Cognitive Decline in a Mouse Model of Psychiatric Disorders” (Frontiers in Pharmacology, 2021).

Where a SMILES comes first, the peptide text is derived from it. Bridges are numbered along the chain shown (N, C = ends).

The target of one test is T1, human VIPR1 (Homo sapiens, UniProt P32241).
T1 construct: host or cells: CHO-K1
T1 sequence (P32241 31-457): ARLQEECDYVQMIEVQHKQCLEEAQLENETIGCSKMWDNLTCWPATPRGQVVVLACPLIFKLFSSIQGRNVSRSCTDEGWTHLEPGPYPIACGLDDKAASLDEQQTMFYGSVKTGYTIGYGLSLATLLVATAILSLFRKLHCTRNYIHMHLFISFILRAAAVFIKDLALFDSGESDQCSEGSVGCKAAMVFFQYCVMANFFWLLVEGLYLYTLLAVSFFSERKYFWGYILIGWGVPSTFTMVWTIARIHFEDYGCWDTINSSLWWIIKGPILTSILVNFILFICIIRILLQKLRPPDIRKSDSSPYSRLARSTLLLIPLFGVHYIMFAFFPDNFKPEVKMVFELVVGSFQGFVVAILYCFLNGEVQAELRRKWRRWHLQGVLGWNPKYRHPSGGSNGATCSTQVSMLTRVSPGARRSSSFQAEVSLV
The experiment in a line: Calcium influx assay, antagonist activity against VIP-VIPR1 signaling. It is filed as cell-based. The following applies: ligand VIP (25 nM) at EC80; CHO-K1 cells; n = 4 wells, ± S.E.M; read-out: Ca influx assay [IC50 (nM)] VIPR1. The procedure: (§1) Evaluation of antagonist activities of peptides against VIP-VIPR1, VIP-VIPR2, and PACAP-PAC1 signaling pathways and agonistic activity of KS-133 at VIPR2 was carried out by Eurofins DiscoverX (Fremont, CA, United States). Intracellular calcium mobilization was monitored using a calcium-sensitive dye loaded in CHO-K1 cells expressing human VIPR1 (ITEM 86-0030P-2243AN), VIPR2 (ITEM 86-0030P-2244AN), and PAC1 (ITEM 86-0030P-2066AN). The cells were preincubated with antagonistic peptides for 30 min at room temperature in the dark. After addition of the ligand at EC80, calcium mobilization was immediately monitored by FLIPR Tetra for 2 min. Cyclic AMP production in CHO-K1 cells expressing human VIPR2 was evaluated using HitHunter® cAMP assays (antagonist mode: ITEM 86-0007P-2362AN; agonist mode: ITEM 86-0007P-2362AG). The cells were preincubated with antagonistic peptides for 30 min at room temperature. After addition of the ligand at EC80, cells were further incubated for 30 min at room temperature. Cells were lysed and the cAMP content of the cell lysate was determined by the β-galactosidase-based enzyme fragment complementation assay ([Eglen, 2002]). IC50 values were estimated by the following equation: IC50 = 10^[Log(A/B) × (50–D)/(C–D) + Log(B)], where A is the concentration at >50% inhibition, B is the concentration at <50% inhibition, C is the inhibition rate at concertation A, and D is the inhibition rate at concertation B.
(§2) First, the antagonistic activities of parental VIpep-3, KS-132, KS-133 (monocyclic) (no bridging between Lys^7 and Asp^11), and KS-133 against human VIPR1, VIPR2, and PAC1 were evaluated by a calcium influx assay. After antagonistic peptide treatment for 30 min, ligand at a concentration of EC80 was added to the cells and then calcium signaling was measured.
(§3) FIGURE 3 Antagonistic/agonistic activities of peptides in the calcium influx and cAMP assays. For evaluation of the antagonistic activity, the cells were preincubated with antagonistic peptides for 30 min. In the calcium influx assay, after addition of ligand at EC80, calcium mobilization was monitored immediately (see details in the Methods section) (n = 4 wells for each treatment). In the cAMP assay, after a 30 min incubation with the ligand at EC80, cAMP production in cells was measured (see details in the Methods section) (n = 4 wells for each treatment).

The target in the next test is T2, human PAC1 (Homo sapiens, UniProt P41586).
T2 construct: host or cells: CHO-K1
T2 sequence (P41586 21-468): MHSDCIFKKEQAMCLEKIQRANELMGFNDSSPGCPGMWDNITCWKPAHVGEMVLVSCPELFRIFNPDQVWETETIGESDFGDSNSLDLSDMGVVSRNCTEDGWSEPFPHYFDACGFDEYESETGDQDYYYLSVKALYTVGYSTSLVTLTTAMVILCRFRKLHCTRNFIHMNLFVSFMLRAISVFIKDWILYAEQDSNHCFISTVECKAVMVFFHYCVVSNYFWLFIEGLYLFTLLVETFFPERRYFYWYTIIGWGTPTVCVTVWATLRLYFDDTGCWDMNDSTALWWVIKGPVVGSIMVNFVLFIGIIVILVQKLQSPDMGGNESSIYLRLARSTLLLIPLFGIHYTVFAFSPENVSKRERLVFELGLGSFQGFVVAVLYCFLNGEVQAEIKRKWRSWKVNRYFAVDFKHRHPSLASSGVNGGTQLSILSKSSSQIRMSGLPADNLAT
The experiment in a line: Calcium influx assay, antagonist activity against PACAP-PAC1 signaling. It is filed as cell-based. To be noted: ligand PACAP (35 nM) at EC80; CHO-K1 cells; n = 4 wells, ± S.E.M; read-out: Ca influx assay [IC50 (nM)] PAC1. The procedure:
as §1, §2, §3

The term IC50 denotes the concentration needed to halve the response being measured. As for `CC[C@H](C)[C@H](NC(=O)[C@H](CC(C)C)NC(=O)[C@@H]1CC(=O)NCCCC[C@@H]2NC(=O)[C@@H]3CCCN3C(=O)[C@H](CC(C)C)NC(=O)[C@H](Cc3ccc(O)cc3)NC(=O)[C@@H]3CCCN3C(=O)[C@@H]3CCCN3C(=O)[C@@H](NC(C)=O)CSSC[C@H](NC(=O)[C@H](CC(C)C)NC(=O)[C@H](Cc3ccc(O)cc3)NC2=O)C(=O)N1)C(N)=O` [KS-133, Ac-c[Cys-Pro-Pro-Tyr-Leu-Pro-c(Lys-Tyr-Leu-Cys]-Asp)-Leu-Ile-NH2] (Ac-CPPYLPKYLCDLI-NH2; disulfide 1-10; lactam 7-11), the 50% inhibitory concentration (IC50) on human VIPR1 and at human PAC1 was above 5000 nM in each case.
